The target in one assay is purified αllbβ3 receptor (Homo sapiens, UniProt P05106+P08514). Briefly: similar competitive binding assay with 125I-echistatin on αllbβ3 receptor, used for the specificity index. As to conditions: Table 16; specificity index IC50 αllbβ3/ IC50 αvβ3. The protocol: To measure the relative affinity of the test compounds for αvβ3 receptors versus affinity for αllbβ3 receptors, similar competitive assays were carried out using purified αllbβ3 receptor and ^125I-echistatin (iodinated using the lactoperoxidase method). The specificity index, which is a measure of the relative binding affinity for αvβ3, versus αllbβ3, may be determined by dividing the IC50 value for αllbβ3 by the IC50 value for αvβ3.

Assay [1] addresses T1, αvβ3 receptor (purified from human placenta) (Homo sapiens, UniProt P05106+P06756).
T1 construct: αvβ3 receptor (purified from human placenta); from tissue; host or cells: human placenta
Nature of the assay: competition radioligand binding assay, 125I-echistatin to αvβ3 receptor. As to conditions: Table 16; αvβ3, inhibition of specific 125I-echistatin binding. The protocol:
The following assay procedure, which is a competition radioligand binding assay, was carried out to determine the activity of the foregoing compounds as αvβ3 antagonists. The competitive assay procedure described in Kumar, et. al., "Biochemical Characterization Of The Binding Of Echistatin To Integrin αvβ3 Receptor", Journal Of Pharmacology And Experimental Therapeutics, Vol. 283, No. 2, pp. 843-853 (1997) was employed. Thus, binding of ^125I-echistatin (radiolabeled by the chloramine-T method to a specific activity of 2000 Ci/mmol (Amersham, Chicago, Il.)) to αvβ3 receptor (purified from human placenta), both prepared as described in Kumar, et al., was competed by the compounds prepared in the foregoing examples. Purified αvβ3 receptor was coated onto Microlite-2 plates at a concentration of 50 ng/well. ^125I-echistatin was added to the wells to a final concentration of 0.05 nM in binding buffer (50 µl/well) in the presence of the competing test compound. The competing test compounds were employed at serially diluted concentrations ranging from 1 pM to 100 nM. After a 3 hour incubation at room temperature, the wells were washed, and radioactivity, reflecting binding by ^125 I-echistatin to αvβ3 receptors, was determined with Top Count (Packard). Each data point is an average of values from triplicate wells.
Specific binding of ^125I-echistatin was calculated as the difference between the amount of ^125I-echistatin bound in the absence (total binding) and the amount of ^125I-echistatin bound in the presence of a 200-fold molar excess of unlabeled echistatin (nonspecific binding). The efficacy of the test compounds for inhibiting specific binding of ^125I-echistatin to αvβ3 receptors was determined by plotting a graph of specific binding (y-axis) as a function of test compound concentration (x-axis). The concentration of test compound required to inhibit 50% of the specific binding (IC50) was determined from the plot. The IC50 may be directly converted mathematically to Ki, which is a measure of the receptor binding affinity of the compounds under the defined assay conditions.

As a reminder, the IC50 is the midpoint of a concentration-inhibition curve. Read a high IC50 as lower potency. As for `CCCCOC(=O)N[C@@H](CNC(=O)c1ccc(CN(Cc2nc3ccccc3[nH]2)C(=O)Nc2ccccc2)cc1)C(=O)O` [Example 5-83], the “Specificity αllbβ3 / αvβ3” value at purified αllbβ3 receptor was found to be 1689. This molecule also showed an IC50 in assay [1] of 1.8 nM.
As for `CCCCOC(=O)N[C@@H](CNC(=O)c1ccc(CN(Cc2nc3ccccc3[nH]2)C(=O)NC(C)C)cc1)C(=O)O` [Example 5-84], the “Specificity αllbβ3 / αvβ3” value at purified αllbβ3 receptor was 712. This molecule returned an IC50 in assay [1] of 3.6 nM.
Regarding `CCCCOC(=O)N[C@@H](CNC(=O)c1ccc(CN(Cc2nc3ccccc3[nH]2)C(=O)NC(C)(C)C)cc1)C(=O)O` [Example 5-85], the “Specificity αllbβ3 / αvβ3” value on purified αllbβ3 receptor is 1223. In addition, the IC50 in assay [1] turned out to be 1.8 nM.
Regarding `CCCCOC(=O)N[C@@H](CNC(=O)c1ccc(CN(Cc2nc3ccccc3[nH]2)C(=O)NCC(=O)OCC)cc1)C(=O)O` [Example 5-86, N^3-[4-[(benzimidazol-2-yl)methyl][[(ethoxycarbonylmethyl)amino]-carbonyl]aminomethylbenzoyl]-N^2-(n-butoxycarbonyl)-L-2,3-diaminopropionic acid], the “Specificity αllbβ3 / αvβ3” value at purified αllbβ3 receptor was 793. The molecule also displayed an IC50 in assay [1] of 3.3 nM.
Consider `CCCCOC(=O)N[C@@H](CNC(=O)c1ccc(CN(Cc2nc3ccccc3[nH]2)C(=O)N[C@@H](CCSC)C(=O)OCC)cc1)C(=O)O` [Example 5-87], for which the “Specificity αllbβ3 / αvβ3” value at purified αllbβ3 receptor is reported as 1569. The molecule further yielded a concentration for half-maximal inhibition (IC50) in assay [1] of 2 nM.
The corresponding values for `CCCCOC(=O)N[C@@H](CNC(=O)c1ccc(CN(Cc2nc3ccccc3[nH]2)C(=O)Nc2ccc(F)cc2)cc1)C(=O)O` [Example 5-88] are 1657 and 2 nM.
The like results for `CCCCOC(=O)N[C@@H](CNC(=O)c1ccc(CN(Cc2nc3ccccc3[nH]2)C(=O)N[C@@H](C)C(=O)OCC)cc1)C(=O)O` [Example 5-89] were, in that order, 1094 and 3.3 nM.
As to `CCCCOC(=O)N[C@@H](CNC(=O)c1ccc(CN(Cc2nc3ccccc3[nH]2)C(=O)N[C@H](C(=O)OCC)C(C)C)cc1)C(=O)O` [Example 5-90], the “Specificity αllbβ3 / αvβ3” value on purified αllbβ3 receptor is reported as 1697. Also, the IC50 in assay [1] came to 2.6 nM.
Turning to `CCCCOC(=O)N[C@@H](CNC(=O)c1ccc(CN(Cc2nc3ccccc3[nH]2)C(=O)Nc2ccc(C(=O)OCC)cc2)cc1)C(=O)O` [Example 5-91], at purified αllbβ3 receptor, the “Specificity αllbβ3 / αvβ3” value was 1183. The molecule further gave an IC50 in assay [1] of 2.8 nM.
The like results for `Cn1c(CN(Cc2ccc(C(=O)NC[C@H](NC(=O)OCc3ccccc3)C(=O)O)cc2)C(=O)NC2CCCCC2)nc2ccccc21` [Example 5-92] were, in that order, 174 and 7.6 nM.
The like results for `CC(C)NC(=O)N(Cc1ccc(C(=O)NC[C@H](NC(=O)OCc2ccccc2)C(=O)O)cc1)Cc1nc2ccccc2n1C` [Example 5-93] were, in that order, 124 and 6.7 nM.
The like results for `O=C(N[C@@H](CNC(=O)c1ccc(CN(Cc2nc3cc(Cl)ccc3[nH]2)C(=O)NC2CCCCC2)cc1)C(=O)O)OCc1ccccc1` [Example 5-94] were, in that order, 399 and 3.8 nM.
With `CC(C)NC(=O)N(Cc1ccc(C(=O)NC[C@H](NC(=O)OCc2ccccc2)C(=O)O)cc1)Cc1nc2cc(Cl)ccc2[nH]1` [Example 5-95], the “Specificity αllbβ3 / αvβ3” value at purified αllbβ3 receptor is reported as 775. Also, the IC50 in assay [1] stood at 1.7 nM.
The corresponding values for `O=C(O)CNC(=O)N(Cc1ccc(C(=O)NC[C@H](NC(=O)OCc2ccccc2)C(=O)O)cc1)Cc1nc2ccccc2[nH]1` [Example 5-96, N^3-[4-[(Benzimidazol-2-yl)methyl] [[(carboxymethyl)amino]carbonyl]aminomethylbenzoyl]-N^2-Cbz-L-2,3-diaminopropionic acid] are 528 and 3.4 nM.
The corresponding values for `CCCCOC(=O)N[C@@H](CNC(=O)c1ccc(CN(Cc2nc3ccccc3[nH]2)C(=O)NCC(=O)O)cc1)C(=O)O` [Example 5-97, N^3-[4-[(Benzimidazol-2-yl)methyl][[(carboxymethyl)amino]carbonyl]aminomethylbenzoyl]-N^2-(n-butoxycarbonyl)-L-2,3-diaminopropionic acid] are 2600 and 4.3 nM.

The values above are taken from patent publication EP1135374B9, “BENZIMIDAZOLE COMPOUNDS THAT ARE VITRONECTIN RECEPTOR ANTAGONISTS” (SCHERING CORPORATION, priority 1998, dated 2000).
